Marks after values point to notes of the source that are not given here.
Experiments:
[1] = Acute mouse study, metabolite identification in blood and urine by LC-MS/MS; format: in vivo; conditions: oral 50 mg/kg
Description: An acute mouse study was performed under ethical approval from the Ethics Committee for Research on Animals (ECRA) of the South African Medical Research Council (Ref:07/13). Three 8-week old male C57.BKS mice, obtained from the Primate Unit of the South African Medical Research Council (Tygerberg, South Africa), were housed individually in polycarbonate cages with wired lids and kept in a controlled environment of 23–24 °C, 50% humidity, and a 12 h light/dark cycle. Prior to the study, urine was collected from the fasting mice overnight in a metabolic cage. Baseline fasted blood was collected via tail snip into a heparin tube, snap frozen in liquid nitrogen, and stored at −80 °C. Each mouse received a single dose of synthetic aspalathin (50 mg/kg body weight) dissolved in phosphate-buffered saline (PBS) (5 mg/mL) via orogastric gavage. Blood samples were collected and handled as described for fasting at time 0 (pre-gavage), and 1, 2, 4, 6, and 8 h post-gavage. All the samples were collected into the same heparin tube and kept on ice during the experiment. Urine was collected over the 8-h post-gavage monitoring period and the samples were stored at −80 °C until analysis.
The frozen whole blood samples, as well as the samples incubated with microsomes and controls, were thawed, extracted by protein precipitation using 0.1% formic acid (FA) in acetonitrile, centrifuged and filtered through 0.22 µm polyvinylidene difluoride (PVDF) filters (Merck Millipore, Frankfurter Straße, Darmstadt, Germany). Frozen whole urine samples were thawed and diluted 5 times in 0.1% aqueous FA. Samples were analysed by LC-MS/MS on an Agilent 1200 Rapid Resolution HPLC system (600 bar, Agilent Technologies) coupled to a 4000 QTRAP® (AB Sciex, Framingham, MA, USA) equipped with a Turbo V™ […]. Filtered samples (10 μL), stored on a sample tray maintained at 8 °C, were injected on a Gemini C6-Phenyl column (150 × 2.0 mm, 3 µm particles) (Phenomenex, Santa Clara, CA, USA) at 40 °C. […]

SGLT1 = biological target: T1, SGLT1 (Homo sapiens, UniProt P13866); conditions: aspalathin 100 µM; 100 µM phloridzin (SGLT1)
T1 sequence (P13866 1-664): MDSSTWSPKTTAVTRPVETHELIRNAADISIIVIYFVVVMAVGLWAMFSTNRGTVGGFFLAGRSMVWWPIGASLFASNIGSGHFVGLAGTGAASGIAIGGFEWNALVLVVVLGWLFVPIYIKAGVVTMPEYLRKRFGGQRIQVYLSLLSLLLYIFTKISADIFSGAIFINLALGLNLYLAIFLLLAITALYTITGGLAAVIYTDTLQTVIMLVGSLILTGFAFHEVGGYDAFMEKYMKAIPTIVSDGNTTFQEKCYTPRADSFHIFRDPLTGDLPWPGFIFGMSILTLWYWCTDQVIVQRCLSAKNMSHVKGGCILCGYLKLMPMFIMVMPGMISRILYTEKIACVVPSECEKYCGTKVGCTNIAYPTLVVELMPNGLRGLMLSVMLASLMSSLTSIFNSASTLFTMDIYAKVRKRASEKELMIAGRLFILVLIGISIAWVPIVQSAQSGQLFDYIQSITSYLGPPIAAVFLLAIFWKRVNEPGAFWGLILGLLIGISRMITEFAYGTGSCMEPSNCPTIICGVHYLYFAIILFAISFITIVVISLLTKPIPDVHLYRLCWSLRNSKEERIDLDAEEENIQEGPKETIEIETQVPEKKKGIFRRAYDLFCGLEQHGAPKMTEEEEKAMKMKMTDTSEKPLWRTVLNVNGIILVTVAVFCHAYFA
Description: The cell monolayers were equilibrated briefly with transport buffer, pH 6.0 (HBSS with 2-(N-morpholino) ethanesulphonic acid (MES)) on the apical side and pH 7.4 (HBSS with HEPES) on the basolateral side, to remove traces of the culture media. Following this, transport buffers were added for 30 min prior to the addition of treatment (inhibitors were added during this step when required, as well as during the subsequent treatment incubation step). After equilibration, the plates containing transport medium were incubated for 30 min at 37 °C at 5% CO2 in 95% humidified air and the TEER value of the monolayer determined. […] For basolateral-to-apical compartment studies, 2.4 mL of treatment at the same concentrations in HBSS (pH 7.4), was added to the basolateral compartment.
To assess whether aspalathin was co-transported with glucose, its transport (100 µM) at both high (20.5 mM) and low (5.5 mM) glucose concentrations, mimicking the intestinal lumen glucose concentrations pre- and post-meals, was monitored. This was followed by experiments performed in the presence and absence of SGLT1 (100 µM phloridzin), GLUT2 (100 µM phloretin) and efflux, PgP (100 µM verapamil) inhibitors.
Samples (1.2 mL) were withdrawn from the basolateral or the apical compartment to measure the concentration of aspalathin uptake and efflux, respectively at 0, 0.5, 1, 1.5, and 2 h under sink conditions (the sample aliquot replaced with equal volume of relevant transport buffer). Sample aliquots (350 µL) were frozen in liquid nitrogen after the addition of ascorbic acid (35 µL of 10% solution) and stored at −65 °C until HPLC analysis. Results were corrected for dilution and expressed as cumulative transport (% of initial dose) as a function of time. Papp (cm/s) for bi-directional transport studies was calculated as previously described. Transport of other major flavonoids in the matrices, i.e., nothofagin, the 3-deoxy analogue of aspalathin and its flavone derivatives, orientin and isoorientin, were also determined.

[2] = Extended Clearance Classification System (ECCS) classification; conditions: weak acid, molecular weight higher than 400 g/mol

O=C(CCc1ccc(O)c(O)c1)c1c(O)cc(O)c([C@@H]2O[C@H](CO)[C@@H](O)[C@H](O)[C@H]2O)c1O [Aspalathin]
detection of aspalathin and metabolites in blood ([1]; blood 1-8 h post-gavage): No aspalathin, nor any of its metabolites, could be detected
number of aspalathin metabolites detected in the urine ([1]; urine over 8 h): 13
Efflux Ratio + Inhibitor (phloridzin) (SGLT1): 0.99 ^c
Papp a-b + Inhibitor (phloridzin) (SGLT1): 1.47 ± 1.10 ^c ×10^−6 cm/s
Papp b-a + Inhibitor (phloridzin) (SGLT1): 1.47 ± 0.9 ^c ×10^−6 cm/s
ECCS class [2]: 3B

From publication PMC6154319, “Intestinal Transport Characteristics and Metabolism of C-Glucosyl Dihydrochalcone, Aspalathin” (Molecules : A Journal of Synthetic Chemistry and Natural …, 2017)
